Blank lines part the entries; values can stand above or below the molecule they belong to.
Legend:
[1] = target: T1, Metabotropic glutamate receptor 2 (Homo sapiens, UniProt Q14416); assay: Positive allosteric modulation of human mGlu2 receptor expressed in CHO cells assessed as potentiation of glutamate-induced effect incubated for 30 mins prior to [35S]GTPgamma addition measured after 30 mins; type: functional, cell-based
Target sequence in this assay (Q14416 whole entry): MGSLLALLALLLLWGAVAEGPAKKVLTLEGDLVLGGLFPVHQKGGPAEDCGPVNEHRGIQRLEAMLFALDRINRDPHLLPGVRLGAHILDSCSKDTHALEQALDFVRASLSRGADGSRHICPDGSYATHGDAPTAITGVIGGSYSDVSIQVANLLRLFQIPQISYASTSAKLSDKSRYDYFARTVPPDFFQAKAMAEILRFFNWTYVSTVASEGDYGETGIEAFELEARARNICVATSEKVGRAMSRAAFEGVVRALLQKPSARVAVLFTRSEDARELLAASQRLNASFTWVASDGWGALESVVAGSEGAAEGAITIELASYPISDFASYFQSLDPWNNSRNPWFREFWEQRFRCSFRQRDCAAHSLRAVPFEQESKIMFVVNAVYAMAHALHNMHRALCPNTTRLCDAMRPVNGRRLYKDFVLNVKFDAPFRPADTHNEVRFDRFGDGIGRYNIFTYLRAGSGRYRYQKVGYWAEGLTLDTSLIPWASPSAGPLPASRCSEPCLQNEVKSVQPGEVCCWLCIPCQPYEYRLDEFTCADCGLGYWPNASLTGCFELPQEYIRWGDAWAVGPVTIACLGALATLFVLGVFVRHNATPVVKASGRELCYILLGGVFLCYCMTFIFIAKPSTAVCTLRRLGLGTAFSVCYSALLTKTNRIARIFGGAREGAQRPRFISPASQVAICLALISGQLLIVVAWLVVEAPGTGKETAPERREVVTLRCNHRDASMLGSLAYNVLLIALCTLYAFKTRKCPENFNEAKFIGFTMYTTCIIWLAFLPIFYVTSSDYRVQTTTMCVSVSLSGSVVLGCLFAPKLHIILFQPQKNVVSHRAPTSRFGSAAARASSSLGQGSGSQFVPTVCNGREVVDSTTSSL

[2] = target: T1, Metabotropic glutamate receptor 2; assay: Positive allosteric modulation of human mGlu2 receptor expressed in CHO cells assessed as potentiation of glutamate-induced effect incubated for 30 mins prior to [35S]GTPgamma addition measured after 30 mins relative to glutamate; type: functional, cell-based
Target sequence in this assay (Q14416 19-872 limits assumed): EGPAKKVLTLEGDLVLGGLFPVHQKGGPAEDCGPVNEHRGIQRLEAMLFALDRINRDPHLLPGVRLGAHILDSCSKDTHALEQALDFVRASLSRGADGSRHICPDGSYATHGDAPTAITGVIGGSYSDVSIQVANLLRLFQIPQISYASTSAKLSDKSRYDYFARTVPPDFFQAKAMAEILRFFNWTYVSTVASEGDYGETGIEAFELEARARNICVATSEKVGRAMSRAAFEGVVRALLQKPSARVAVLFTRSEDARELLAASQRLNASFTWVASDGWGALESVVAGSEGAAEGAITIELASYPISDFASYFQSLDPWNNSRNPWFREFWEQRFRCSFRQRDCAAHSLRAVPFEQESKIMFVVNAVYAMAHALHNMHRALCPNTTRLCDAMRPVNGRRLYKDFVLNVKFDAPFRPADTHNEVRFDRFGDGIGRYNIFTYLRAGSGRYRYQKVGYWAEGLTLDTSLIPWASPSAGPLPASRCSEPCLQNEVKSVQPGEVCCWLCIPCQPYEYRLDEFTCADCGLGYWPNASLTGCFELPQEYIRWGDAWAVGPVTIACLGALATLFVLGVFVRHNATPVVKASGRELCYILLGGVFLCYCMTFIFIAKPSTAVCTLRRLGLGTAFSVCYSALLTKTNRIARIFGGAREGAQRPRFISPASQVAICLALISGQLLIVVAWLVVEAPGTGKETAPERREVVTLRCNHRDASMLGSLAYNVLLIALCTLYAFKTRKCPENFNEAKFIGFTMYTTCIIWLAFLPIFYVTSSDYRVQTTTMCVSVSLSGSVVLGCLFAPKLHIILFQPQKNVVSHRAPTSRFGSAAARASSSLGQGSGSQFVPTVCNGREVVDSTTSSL

[3] = Metabolic stability in human liver microsomes assessed as compound metabolized at 5 uM after 15 mins by MS/MS analysis in presence of NADPH; type: ADME; settings: read-out: Drug metabolism
[4] = Metabolic stability in rat liver microsomes assessed as compound metabolized at 5 uM after 15 mins by MS/MS analysis in presence of NADPH; type: ADME; settings: read-out: Drug metabolism
[5] = target: hERG (KCNH2) (Homo sapiens, UniProt Q12809); assay: Inhibition of human ERG channel transfected in HEK293 cells at 3 uM by patch clamp technique; type: cell-based; settings: HEK293 cells transfected with human ERG channel
Chain of hERG (KCNH2) (Q12809 whole entry): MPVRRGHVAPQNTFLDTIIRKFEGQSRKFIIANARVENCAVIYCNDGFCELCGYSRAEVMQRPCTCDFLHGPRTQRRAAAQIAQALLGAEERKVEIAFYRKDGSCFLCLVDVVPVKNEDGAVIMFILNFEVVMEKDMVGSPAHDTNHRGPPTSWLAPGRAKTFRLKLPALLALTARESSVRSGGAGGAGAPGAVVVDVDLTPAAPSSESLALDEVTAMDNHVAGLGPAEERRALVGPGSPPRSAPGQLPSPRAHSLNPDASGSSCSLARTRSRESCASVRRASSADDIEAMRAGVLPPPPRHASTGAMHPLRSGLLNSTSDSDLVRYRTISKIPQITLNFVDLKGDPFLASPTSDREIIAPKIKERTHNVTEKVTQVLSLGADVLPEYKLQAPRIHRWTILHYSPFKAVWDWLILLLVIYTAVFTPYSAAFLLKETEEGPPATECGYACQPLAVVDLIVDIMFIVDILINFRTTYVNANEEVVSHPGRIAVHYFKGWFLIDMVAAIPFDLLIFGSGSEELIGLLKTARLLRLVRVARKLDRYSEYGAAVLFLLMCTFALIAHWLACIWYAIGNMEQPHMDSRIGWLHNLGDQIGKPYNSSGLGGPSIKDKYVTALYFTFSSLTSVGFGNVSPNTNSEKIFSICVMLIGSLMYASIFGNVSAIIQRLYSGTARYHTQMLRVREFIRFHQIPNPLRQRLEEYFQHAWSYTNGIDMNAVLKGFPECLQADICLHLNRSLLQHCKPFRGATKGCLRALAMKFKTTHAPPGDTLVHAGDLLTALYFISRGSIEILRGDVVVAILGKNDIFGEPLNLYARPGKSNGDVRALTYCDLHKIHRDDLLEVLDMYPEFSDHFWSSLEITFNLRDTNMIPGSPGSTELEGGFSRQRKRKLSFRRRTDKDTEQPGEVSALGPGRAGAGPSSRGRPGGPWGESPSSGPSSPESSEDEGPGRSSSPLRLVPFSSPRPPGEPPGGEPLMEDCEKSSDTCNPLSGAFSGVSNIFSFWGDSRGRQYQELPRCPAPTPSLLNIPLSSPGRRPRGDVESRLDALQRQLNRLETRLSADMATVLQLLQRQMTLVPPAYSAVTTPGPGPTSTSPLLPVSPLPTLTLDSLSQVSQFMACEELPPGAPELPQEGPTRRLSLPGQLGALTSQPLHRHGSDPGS

EC50 [1]: 871 nM | Emax [2]: 310% | metabolised at 0.25 h, 5 µM [3]: 74% | metabolised at 0.25 h, 5 µM [4]: 100%
Structure (SMILES): CC(C)CCn1ccc(N2CCc3ccccc3C2)c(C#N)c1=O

EC50 [1]: 10700 nM | Emax [2]: 249% | metabolised at 0.25 h, 5 µM [3]: 69% | metabolised at 0.25 h, 5 µM [4]: 100%
Structure (SMILES): CC(C)CCn1ccc(N(C)Cc2ccccc2)c(C#N)c1=O

EC50 [1]: 3090 nM | Emax [2]: 304% | metabolised at 0.25 h, 5 µM [3]: 51% | metabolised at 0.25 h, 5 µM [4]: 54%
Structure (SMILES): CC(C)CCn1ccc(N2CCN(c3ccccn3)CC2)c(C#N)c1=O

EC50 [1]: 3310 nM | Emax [2]: 231% | metabolised at 0.25 h, 5 µM [3]: 80% | metabolised at 0.25 h, 5 µM [4]: 98%
Structure (SMILES): CC(C)CCn1ccc(N2CCCC(c3ccccc3)C2)c(C#N)c1=O (configuration not stated)

EC50 [1]: 361 nM | Emax [2]: 168% | metabolised at 0.25 h, 5 µM [3]: 91% | metabolised at 0.25 h, 5 µM [4]: 99%
Structure (SMILES): CC(C)CCn1ccc(CCc2ccccc2)c(C#N)c1=O

Emax [2]: 239% | metabolised at 0.25 h, 5 µM [3]: 33% | metabolised at 0.25 h, 5 µM [4]: 89%
Structure (SMILES): O=c1c(C(F)(F)F)c(N2CCC(c3ccccc3)CC2)ccn1CC1CC1

EC50 [1]: 98 nM | Emax [2]: 257% | metabolised at 0.25 h, 5 µM [3]: 76% | metabolised at 0.25 h, 5 µM [4]: 57%
Structure (SMILES): COc1ccc(C2CCN(c3ccn(CC4CC4)c(=O)c3C#N)CC2)cc1

EC50 [1]: 68 nM | Emax [2]: 272% | metabolised at 0.25 h, 5 µM [3]: 17% | metabolised at 0.25 h, 5 µM [4]: 34%
Structure (SMILES): N#Cc1c(N2CCC(c3ccc(F)cc3F)CC2)ccn(CC2CC2)c1=O

EC50 [1]: 661 nM | Emax [2]: 118% | metabolised at 0.25 h, 5 µM [3]: 50% | metabolised at 0.25 h, 5 µM [4]: 90%
Structure (SMILES): CC(C)CCn1ccc(N2CCN(c3ccccc3)CC2)c(C#N)c1=O

EC50 [1]: 282 nM | Emax [2]: 316% | metabolised at 0.25 h, 5 µM [3]: 37% | metabolised at 0.25 h, 5 µM [4]: 47%
Structure (SMILES): CC(C)Cn1ccc(N2CCC(c3ccccc3)CC2)c(C#N)c1=O

Further lines, the molecule ahead of its results:

Structure (SMILES): COc1ccccc1C1CCN(c2ccn(CC3CC3)c(=O)c2C#N)CC1
EC50 [1]: 35 nM | Emax [2]: 265% | metabolised at 0.25 h, 5 µM [3]: 53% | metabolised at 0.25 h, 5 µM [4]: 68% | inhibition at 3 µM [5]: 65%

Structure (SMILES): CC(C)CCn1ccc(N2CCC(c3ccccc3)CC2)c(C#N)c1=O
EC50 [1]: 102 nM | Emax [2]: 268% | metabolised at 0.25 h, 5 µM [3]: 28% | metabolised at 0.25 h, 5 µM [4]: 97%

Structure (SMILES): N#Cc1c(N2CCC(c3ccccc3)CC2)ccn(CCC2CC2)c1=O
EC50 [1]: 178 nM | Emax [2]: 316% | metabolised at 0.25 h, 5 µM [3]: 50% | metabolised at 0.25 h, 5 µM [4]: 61%

Structure (SMILES): N#Cc1c(N2CCC(c3ccc(Cl)cc3)CC2)ccn(CC2CC2)c1=O
EC50 [1]: 48 nM | Emax [2]: 249% | metabolised at 0.25 h, 5 µM [3]: 28% | metabolised at 0.25 h, 5 µM [4]: 21%

Structure (SMILES): N#Cc1c(N2CCC(c3ccccc3)CC2)ccn(CCCC(F)(F)F)c1=O
EC50 [1]: 355 nM | Emax [2]: 302% | metabolised at 0.25 h, 5 µM [3]: 18% | metabolised at 0.25 h, 5 µM [4]: 43%

Structure (SMILES): CC(C)CCn1ccc(-c2ccccc2)c(C#N)c1=O
Emax [2]: 135% | metabolised at 0.25 h, 5 µM [3]: 36% | metabolised at 0.25 h, 5 µM [4]: 100%

Structure (SMILES): N#Cc1c(N2CCC(c3ccccc3Cl)CC2)ccn(CC2CC2)c1=O
EC50 [1]: 49 nM | Emax [2]: 259% | metabolised at 0.25 h, 5 µM [3]: 22% | metabolised at 0.25 h, 5 µM [4]: 34%

Structure (SMILES): CC(C)CCn1ccc(OCc2ccccc2)c(C#N)c1=O
EC50 [1]: 2950 nM | Emax [2]: 173% | metabolised at 0.25 h, 5 µM [3]: 22% | metabolised at 0.25 h, 5 µM [4]: 90%

Structure (SMILES): CC(C)CCn1ccc(N2CCN(Cc3ccccc3)CC2)c(C#N)c1=O
EC50 [1]: 4680 nM | Emax [2]: 304% | metabolised at 0.25 h, 5 µM [3]: 38% | metabolised at 0.25 h, 5 µM [4]: 85%

Structure (SMILES): CC(C)CCn1ccc(N2CCCCC2)c(C#N)c1=O
EC50 [1]: 31600 nM | Emax [2]: 185% | metabolised at 0.25 h, 5 µM [3]: 67% | metabolised at 0.25 h, 5 µM [4]: 100%

Structure (SMILES): CCCCn1ccc(N2CCC(c3ccccc3)CC2)c(C#N)c1=O
EC50 [1]: 95 nM | Emax [2]: 309% | metabolised at 0.25 h, 5 µM [3]: 30% | metabolised at 0.25 h, 5 µM [4]: 62%

Structure (SMILES): N#Cc1c(N2CCC(c3ccccc3)CC2)ccn(CC2CCC2)c1=O
EC50 [1]: 55 nM | Emax [2]: 269% | metabolised at 0.25 h, 5 µM [3]: 46% | metabolised at 0.25 h, 5 µM [4]: 86%
